Test results from patent US20210195924A1, “PHOTODYNAMIC INACTIVATION METHOD OF SALMONELLA” (SHANGHAI OCEAN UNIVERSITY, priority 2019, published 2021).

Columns and labels:
Escherichia coli = conditions: Gram-negative bacteria Escherichia coli; cited from earlier work
Staphylococcus aureus = conditions: Gram-positive bacteria Staphylococcus aureus; cited from earlier work
[1] = system: Salmonella typhimurium CICC 21484 and Salmonella enteritidis CMCC 50041; assay: Riboflavin-mediated photodynamic inactivation of Salmonella in bacterial solution (455-460 nm LED blue light, plate count); assay type: cell-based
[2] = system: vesicular stomatitis virus; conditions: ultraviolet radiation; riboflavin 300 μmol/L; under 10 minutes; cited from earlier work
[3] = system: Salmonella on contaminated egg shells; assay: Salmonella inactivation experiment for fresh egg shells; assay type: cell-based
Procedure: Sterile egg shells were mixed with a Salmonella bacterial solution to be contaminated and divided into three groups as follows: 1, a single photosensitizer group with riboflavin concentration of 150 μmol/L, was subjected to the dark incubation for 40 min without the illumination of a blue light source; 2, a photodynamic experiment group with riboflavin concentration of 150 μmol/L, was subjected to the dark incubation for 40 min under the illumination of the blue light source for 40 min; and 3, a blank reference group with a saline solution having a volume equal to that of the riboflavin solution. Each group was provided with two parallel groups.
Bacteria culture: under a sterile condition, each group of egg shells was diluted with the saline solution for two times and then homogenized by a sterile homogenizing device and diluted. 100 μL diluent with appropriate dilution degrees was inoculated into the TSA solid culture medium and cultured for 24 to 48 h in the thermostatic incubator at 37° C. The number of bacterial colonies in each group was counted.

Row | Compound | influence on growth (Escherichia coli) | photodynamic inactivation effect (Staphylococcus aureus) | amount of Salmonella reduced ([1]; riboflavin 100 μmol/L, incubation time 40 min, illumination time 30 min, initial inoculation about 4.5×10^6 CFU/mL) [Log CFU/mL] | lethality (fatality rate) of Salmonella ([1]; riboflavin 150 μmol/L, dark incubation 40 min, illumination 30 min) [%] | fatality rate of Salmonella ([1]; riboflavin 150 μmol/L, dark incubation 40 min, illumination time 40 min) [%] | lethality (fatality rate) of Salmonella ([1]; riboflavin 150 μmol/L, dark incubation 40 min, no blue light (illumination 0 min)) | amount of Salmonella reduced ([1]; riboflavin 150 μmol/L, incubation 40 min, illumination time 20 min, initial inoculation about 6.75 Log CFU/mL) [Log CFU/mL] | amount of Salmonella reduced ([1]; riboflavin 150 μmol/L, incubation 40 min, illumination time 30 min, initial inoculation about 6.75 Log CFU/mL (Embodiment 3)) [Log CFU/mL] | amount of Salmonella reduced ([1]; riboflavin 150 μmol/L, incubation 40 min, illumination time 40 min, initial inoculation about 6.75 Log CFU/mL) [Log CFU/mL] | amount of Salmonella reduced ([1]; riboflavin 150 μmol/L, incubation 40 min, illumination time 50 min, initial inoculation about 6.75 Log CFU/mL) [Log CFU/mL] | amount of Salmonella reduced ([1]; riboflavin 150 μmol/L, incubation time 40 min, illumination time 30 min, initial inoculation about 4.5×10^6 CFU/mL (Embodiment 1)) [Log CFU/mL] | lethality of Salmonella ([1]; riboflavin 200 μmol/L, dark incubation 40 min, illumination 30 min) [%] | amount of Salmonella reduced ([1]; riboflavin 200 μmol/L, incubation time 40 min, illumination time 30 min, initial inoculation about 4.5×10^6 CFU/mL) [Log CFU/mL] | lethality of Salmonella ([1]; riboflavin concentration increased beyond 200 μmol/L, dark incubation 40 min, illumination 30 min) | virus killing [2] | sterilization rate ([3]; egg shells, photodynamic inactivation with riboflavin as photosensitizer, multiple experiments) [%] | number of bacterial colonies in the egg shells after the PDI treatment ([3]; riboflavin 150 μmol/L, dark incubation 40 min, blue light 40 min, blank reference group 7.4×10^5 CFU/g) | number of bacterial colonies in the egg shells of the single photosensitizer group ([3]; riboflavin 150 μmol/L, dark incubation 40 min, no blue light, blank reference group 7.4×10^5 CFU/g)
1 | chlorophyllin ester | no influence on the growth | significant photodynamic inactivation effect |  |  |  |  |  |  |  |  |  |  |  |  |  |  |  | 
2 | Cc1cc2nc3c(=O)[nH]c(=O)nc-3n(C[C@H](O)[C@H](O)[C@H](O)CO)c2cc1C [riboflavin] |  |  | 1.12 | 100 | 100 | extremely low | 2.23 | 6.21 | 6.75 | 6.75 | 6.14 | 100 | 6.21 | apparently decreased | killed | 99.88 | 8.4×10^2 CFU/g | 7.0×10^5 CFU/g
